The text below walks through data of patent US20050245508A1, “Treatment of malignant gliomas with TGF-beta inhibitors” (SCIOS, Inc., priority 2003, published 2005).

One assay deals with SMA-560 glioma cells. In words: Glioma cell growth, [methyl-3H]-thymidine incorporation. The class given is cell-based, murine. Here is the method: (§1) FIG. 2. Abrogation of autocrine TGF-β signaling in glioma cells by Compound No. 79. A. The cells were seeded at 10^4 cells/well in 96 well plates and cultured in the absence or presence of Compound No. 79 for 48 h in serum-free medium. Growth was assessed by [methyl-^3H]-thymidine incorporation at 48 h (*p<0.05, t-test). B. Lysates from untreated glioma cells or cells preexposed to Compound No. 79 (1 μM) for 24 h or exposed to TGF-b2 (5 ng/ml) for 1 h or both were assessed for the levels of p-Smad2 or total Smad2/3. Note that the antibodies were specific to p-Smad2 and total Smad 2 and 3, respectively.
The glioma cells and CCL64 cells were maintained in DMEM supplemented with 2 mM L-glutamine (Gibco Life Technologies, Paisley, UK), 10% FCS (Biochrom KG, Berlin, Germany) and penicillin (100 IU/ml)/streptomycin (100 μg/ml) (Gibco). Growth and viability of the glioma cells was examined by crystal violet, LDH release (Roche, Mannheim, Germany) and trypan blue dye exclusion assays. To assess clonogenicity, 500 SMA-560 cells were seeded into 6 well plates (9.4 cm^2). After formation of visible cell formations, colonies>20 cells were counted.
(In general: Incorporation of labelled thymidine or its analogues reports DNA synthesis.)

In a further assay the test system is Smad2 phosphorylation. In words: Immunoblot of p-Smad2 and total Smad2/3 in glioma cells. Type of assay: cell-based. The method, then: as §1
The levels of phosphorylated Smad2 (p-Smad2) protein levels were analyzed by immunoblot using 20 μg of protein per lane on a 12% acrylamide gel. After transfer to a PVDF membrane (Amersham, Braunschweig, Germany), the blots were blocked in PBS containing 5% skim milk and 0.05% Tween 20, and incubated overnight at 4° C. with p-Smad2 antibody (2 μg/ml). Visualization of protein bands was accomplished using horseradish peroxidase-coupled secondary antibody (Sigma) and enhanced chemiluminescence (Amersham). Total Smad2/3 levels were assessed using a specific Smad2/3 antibody (Becton-Dickinson).

In assay [1] the test system is HLA-mismatched PBL cocultured with LN-308 cells. Kind of assay: Cytokine release by immune effector cells, Elispot. Type of assay: cell-based, human. The note with it: 1 μM. The method, then:
(§2) FIG. 3. Modulation of allogeneic anti-glioma immune responses by Compound No. 79 involves TGF-β antagonism. A. The lytic activity against LN-308 targets of PBL (squares) or purified T cells (triangles) preincubated with irradiated LN-308 cells in the absence (open symbols) or presence (filled symbols) of Compound No. 79 (1 μM) was determined in ^51Cr release assays. B-D. PBL were cultured in the absence (left) or presence (right) of irradiated LN-308 cells for 5 days. The cultures contained Compound No. 79 (1 μM) (filled bars) or not (open bars). Subsequently these effector cells were cocultured for 24 h with fresh non-irradiated LN-308 cells in the absence of Compound No. 79. The release of IFN-γ (B), TNF-α (C) or IL-10 (D) was assessed by Elispot assay. Data are expressed as cytokine-producing cells per 5×10^5 effector cells (n=3, *p<0.05, **p<0.01, t-test, effect of Compound No. 79). […]
IL-10, TNF-α and IFN-γ release by immune effector cells was assessed by Elispot assay in a multiscreen-HA 96 well plate (Millipore, Eschborn, Germany), coated with corresponding anti-human capture antibodies (Becton Dickinson). […] Spots were counted on an Elispot reader system (AID, Straβberg, Germany). […]

Assay [2] deals with splenocytes / LAK cells against SMA-560. Kind of assay: Ex vivo immune effector assays, splenocytes of glioma-bearing mice. The class given is in vivo, VM/Dk mice. The method, then: FIG. 4. Compound No. 79 inhibits the growth of syngeneic SMA-560 experimental gliomas in vivo and promotes immune activation. A. VM/Dk mice received an intracranial injection of 5×10^3 SMA-560 cells. Three days later treatment with Compound No. 79 was initiated, and survival was monitored. B. The animals were treated as in A, but were sacrificed on day 10 to obtain splenocytes. IFN-γ release at 24 h was assessed by Elispot. Data are expressed as cytokine-producing cells per 10^6 effector cells. C. The splenocytes were stimulated with IL-2 for 10 days to generate LAK cells. Their lytic activity was measured by ^51Cr release using SMA-560 as target cells (vehicle, open squares; Compound No. 79, filled squares) (*p<0.05, t-test).
IL-10, TNF-α and IFN-γ release by immune effector cells was assessed by Elispot assay in a multiscreen-HA 96 well plate (Millipore, Eschborn, Germany), coated with corresponding anti-human capture antibodies (Becton Dickinson). Briefly, 5×10^4 glioma cells were cocultured for 24 h with 105, 2.5×105 or 5×105 HLA-A2-mismatched, prestimulated (5 days) PBL. The cells were removed using double-distilled water, and captured cytokines were visualized using biotinylated antibodies and streptavidin-alkaline phosphatase (Becton Dickinson). Spots were counted on an Elispot reader system (AID, Straβberg, Germany). […]

The subject of a further assay is LN-308 targets. In words: 51Cr release lysis assay, PBL or T cells precultured with irradiated glioma cells. Type of assay: cell-based, human. As to conditions: preexposure 1 μM during coculture with irradiated glioma cells, 4 h 51Cr release, FIG. 3A. The method, then: as §2
HLA-A2-mismatched PBL or T cells (107/25 cm2 flask) were cocultured with 106 irradiated (30 Gy) glioma cells for 5 days. […] The maximum 51Cr release was determined by addition of NP40 (1%). After 4 h the supernatants were transferred to a Luma-PlateTM-96 (Packard, Dreieich, Germany) and measured. The percentage of 51Cr release was calculated as follows: 100×([experimental release−spontaneous release]/[maximum release−spontaneous release]).

As for `Fc1ccc(Cl)cc1-c1nc(Nc2ccncc2)c2nccnc2n1` [Compound No. 79], the proliferation result in the assay on SMA-560 glioma cells (concentrations required to block TGF-β in the CCL64 bioassay, 48 h) is reported as “no effect”. Besides, in the assay with SMA-560 glioma cells (higher concentrations of up to 1 μM, FIG. 2A), the growth result is “moderately inhibited”. Moreover, the “total cellular Smad2/3 levels” value with Smad2 phosphorylation (1 μM 24 h, FIG. 2B) is “without altering”. In addition, in the assay with Smad2 phosphorylation (1 μM 24 h preexposure, TGF-β2 5 ng/ml 1 h, FIG. 2B), the “Smad2 phosphorylation by endogenous or exogenous TGF-β” value was “interfered with Smad2 phosphorylation”. In addition, in the assay on Smad2 phosphorylation (no exogenous TGF-β), the “pSmad phosphorylation signal in untreated glioma cells” value was “abolished”. Besides, in assay [1] (PBL primed in presence of LN-308 cells, FIG. 3B), the IFN-γ release result was “restored the IFN-γ release to levels comparable to PBL pre-cultured in the absence of LN-308 cells”. Also, the IL-10 release entry in assay [1] (unstimulated and glioma cell-primed cultures, FIG. 3D) was “reduced”. Besides, the “animals with increase over background of IFN-γ release by splenocytes” value in assay [2] (Elispot, day 7 after initiation of treatment, control 1 of 5, FIG. 4B) is given as 3 of 5. Besides, the “lytic activity of LAK cells against SMA-560 targets” value in assay [2] (splenocytes stimulated with IL-2 for 10 days, 51Cr release, FIG. 4C) is on record as “enhanced lytic activity”. The “lytic activity of HLA-A2-mismatched PBL or purified T cells” value in the assay on LN-308 targets is recorded as “significantly enhanced”.
